Square brackets hold non-standard residues; d marks the D form. Peptide text beside a SMILES is read from it. * marks the point of attachment. AFC = O=c1cc(C(F)(F)F)c2ccc(N*)cc2o1; pNA = O=[N+]([O-])c1ccc(N*)cc1; Cbz = O=C(OCc1ccccc1)*; Sar = CNCC(=O)O
Key:
[1] = system: thrombin; experiment: More sensitive thrombin activity assay with fluorogenic substrate Z-GPR-afc (fluorescence at 500 nm); format: biochemical, human; conditions: excitation at 400 nm
Method: (§1) Assays of human a-thrombin and human trypsin were performed at 25° C. in 0.05 M TRIS buffer pH 7.4, 0.15 M NaCl, 0.1% PEG. Trypsin assays also contained 1 mM CaCl2.
In certain studies with potent inhibitors (Ki <10 nM) where the degree of inhibition of thrombin was high, a more sensitive activity assay was employed. […] Concentrations of stock solutions of Z-GPR-afc were determined from measurements of absorbance at 380 nm of the 7-amino-4-trifluoromethyl coumarin produced upon complete hydrolysis of an aliquot of the stock solution by thrombin.
(§2) Activity assays were performed by diluting a stock solution of substrate at least tenfold to a final concentration ≤0.5 Km into a solution containing enzyme or enzyme equilibrated with inhibitor. Times required to achieve equilibration between enzyme and inhibitor were determined in control experiments. Initial velocities of product formation in the absence (Vo) or presence of inhibitor (Vi) were measured. Assuming competitive inhibition, and that unity is negligible compared Km /[S], […] (where [S], [I], and e respectively represent the total concentrations, of substrate, inhibitor and enzyme), the equilibrium constant (Ki) for dissociation of the inhibitor from the enzyme can be obtained from the dependence of Vo /Vi on [I] shown in equation 1.

[2] = system: human a-thrombin; experiment: In vitro assay for determining proteinase inhibition, thrombin (p-nitroanilide substrate sar-PR-pna, 405 nm); format: biochemical; conditions: 25° C., pH 7.4
Method: (§3) In Vitro Assay for Determining Proteinase Inhibition
as §1, §2

[3] = system: human trypsin; experiment: In vitro assay for determining proteinase inhibition, trypsin (p-nitroanilide substrate sar-PR-pna, 405 nm); format: biochemical; conditions: 25° C., pH 7.4, 1 mM CaCl2
Method: as §3, §1, §2

SMILES	Km [1] [µM]	Km [2] [µM]	Km [3] [µM]
N=C(N)NCCC[C@H](NC(=O)[C@@H]1CCCN1C(=O)CNC(=O)OCc1ccccc1)C(=O)Nc1ccc2c(C(F)(F)F)cc(=O)oc2c1 [Z-GPR-afc, Cbz-Gly-Pro-Arg-7-amino-4-trifluoromethylcoumarin] (Cbz-Gly-Pro-Arg-{AFC})	27	–	–
CNCC(=O)N1CCC[C@H]1C(=O)N[C@@H](CCCNC(=N)N)C(=O)Nc1ccc([N+](=O)[O-])cc1 [sar-PR-pna, sarcosine-Pro-Arg-p-nitroanilide] (H-[Sar]-Pro-Arg-pNA)	–	125	59

Reference: US5932606A, “Pyrazinone, pyridinone, piperidine and pyrrolidine thrombin inhibitors” (Merck & Co., Inc., priority 1998, dated 1999)
